Values of other authors in US20260151310A1, “COSMETIC FOR HAIR GROWTH, COSMETIC RAW MATERIAL AND COSMETIC, AND METHOD FOR PRODUCING THE SAME” (Teika Pharmaceutical Co., Ltd., priority 2021, published 2026).

Test system: hair density and hair thickness
Conditions: compared with positive control minoxidil; Non Patent Literature 1

SMILES: [O-][n+]1ccccc1[S-].[O-][n+]1ccccc1[S-].[Zn+2] [pyrithione zinc]
- Effect on hair density and hair thickness: less than half the effect of a positive control minoxidil
